Measured values taken from patent US9980943B2, “Methods of treating muscular dystrophy” (BOARD OF REGENTS OF THE NEVADA SYSTEM OF HIGHER EDUCATION, …, priority 2013, dated 2018).

Columns and labels:
Type in all cases: cell-based, mouse
[1] = tested on: α7 integrin (LacZ reporter in α7βgal+/− myoblasts); experiment: Myoblast α7+/LacZ integrin FDG assay (Burkin assay in myoblasts, 96-well); conditions: 96-well; for Burkin Assay in Myoblasts, value relative to DMSO: SU9516 analogs, N=3-6; for Burkin Assay in Myoblasts, signal relative to DMSO: α7+/LacZ myoblasts
[2] = tested on: α7 integrin (LacZ reporter in α7+/LacZ myotubes); experiment: Myotube α7 integrin FDG assay (Burkin assay in myotubes, 96-well); conditions: for Burkin Assay in Myotubes, value relative to DMSO: SU9516 analogs, 96-well, N=3-6
[3] = tested on: β-galactosidase in CMV-LacZ C2C12 myoblasts; experiment: CMV-LacZ secondary screen in C2C12 myoblasts (β-Gal stabilizing assay); conditions: for CMV-LACZ in Myoblasts, value relative to DMSO: SU9516 analogs, C2C12 CMV-LacZ, N=2; for CMV-LACZ in Myoblasts (β-galactosidase activity relative to DMSO): CMV-LacZ C2C12 myoblasts
Method in brief: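 C2C12 myoblasts stably carrying a linearized CMV-driven LacZ construct, clone chosen by β-gal level in the myoblast FDG assay. Compounds tested in 96-well dose-response at 0.5, 1, 5, 10, 20 and 40 μM, N=2 replicates per point, to detect β-gal stabilization.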

[4] = tested on: β-galactosidase in CMV-LacZ C2C12 myotubes; experiment: CMV-LacZ secondary screen in C2C12 myotubes (β-Gal stabilizing assay); conditions: for CMV-LACZ in Myotubes, value relative to DMSO: SU9516 analogs, C2C12 CMV-LacZ, N=2; for CMV-LACZ in Myotubes, signal relative to DMSO: C2C12 CMV-LacZ myotubes, fold relative to DMSO
Method in brief: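 A secondary screen identifies compounds that stabilize β-gal independently of the native promoter, using CMV-LacZ C2C12 cells. Curves span 0.5–40 μM at six levels, in duplicate.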

For `Cc1cc(C)c(/C=C2\C(=O)Nc3ccccc32)[nH]1` [NCGC00094381-03], the “Burkin Assay in Myoblasts, value relative to DMSO” value ([1]; 0.5 uM) was 0.9368, the “Burkin Assay in Myoblasts, value relative to DMSO” value ([1]; 1 uM) was 0.9952 and the “Burkin Assay in Myoblasts, value relative to DMSO” value ([1]; 5 uM) was 0.7327. For the same compound, the “Burkin Assay in Myoblasts, value relative to DMSO” value ([1]; 10 uM) was 0.6579, the “Burkin Assay in Myoblasts, value relative to DMSO” value ([1]; 20 uM) was 0.6668 and the “Burkin Assay in Myoblasts, value relative to DMSO” value ([1]; 40 uM) was 0.5203. The “Burkin Assay in Myotubes, value relative to DMSO” value ([2]; 0.5 uM) was 0.8564, the “Burkin Assay in Myotubes, value relative to DMSO” value ([2]; 1 uM) was 0.9334 and the “Burkin Assay in Myotubes, value relative to DMSO” value ([2]; 5 uM) was 0.9015. For the same compound, the “Burkin Assay in Myotubes, value relative to DMSO” value ([2]; 10 uM) was 1.024, the “Burkin Assay in Myotubes, value relative to DMSO” value ([2]; 20 uM) was 0.9497 and the “Burkin Assay in Myotubes, value relative to DMSO” value ([2]; 40 uM) was 1.151. For the same compound, the “CMV-LACZ in Myoblasts, value relative to DMSO” value ([3]; 0.5 uM) was 0.9504, the “CMV-LACZ in Myoblasts, value relative to DMSO” value ([3]; 5 uM) was 0.8667 and the “CMV-LACZ in Myoblasts, value relative to DMSO” value ([3]; 10 uM) was 1.0089. For the same compound, the “CMV-LACZ in Myoblasts, value relative to DMSO” value ([3]; 20 uM) was 0.7777, the “CMV-LACZ in Myoblasts, value relative to DMSO” value ([3]; 40 uM) was 1.0253 and the “CMV-LACZ in Myotubes, value relative to DMSO” value ([4]; 0.5 uM) was 0.9227. For the same compound, the “CMV-LACZ in Myotubes, value relative to DMSO” value ([4]; 1 uM) was 1.2227, the “CMV-LACZ in Myotubes, value relative to DMSO” value ([4]; 5 uM) was 1.1125 and the “CMV-LACZ in Myotubes, value relative to DMSO” value ([4]; 10 uM) was 1.5444. For the same compound, the “CMV-LACZ in Myotubes, value relative to DMSO” value ([4]; 20 uM) was 10.9800 and the “CMV-LACZ in Myotubes, value relative to DMSO” value ([4]; 40 uM) was 18.6030.

`Cc1nnc(SCC(=O)c2ccc(Br)cc2)s1` [MLS000420298-01] was tested, and the “Burkin Assay in Myoblasts, signal relative to DMSO” value ([1]; 0.5 uM) was 1.379, the “Burkin Assay in Myoblasts, signal relative to DMSO” value ([1]; 1 uM) was 1.243 and the “Burkin Assay in Myoblasts, signal relative to DMSO” value ([1]; 5 uM) was 1.083. The “Burkin Assay in Myoblasts, signal relative to DMSO” value ([1]; 10 uM) was 1.1, the “Burkin Assay in Myoblasts, signal relative to DMSO” value ([1]; 20 uM) was 1.111 and the “Burkin Assay in Myoblasts, signal relative to DMSO” value ([1]; 40 uM) was 0.9235. For the same compound, the “Burkin Assay in Myotubes, α7 integrin LacZ reporter signal relative to DMSO” value ([2]; 0.5 uM) was 0.9538, the “Burkin Assay in Myotubes, α7 integrin LacZ reporter signal relative to DMSO” value ([2]; 1 uM) was 1.0464 and the “Burkin Assay in Myotubes, α7 integrin LacZ reporter signal relative to DMSO” value ([2]; 5 uM) was 0.9453. For the same compound, the “Burkin Assay in Myotubes, α7 integrin LacZ reporter signal relative to DMSO” value ([2]; 10 uM) was 0.9005, the “Burkin Assay in Myotubes, α7 integrin LacZ reporter signal relative to DMSO” value ([2]; 20 uM) was 0.91 and the “Burkin Assay in Myotubes, α7 integrin LacZ reporter signal relative to DMSO” value ([2]; 40 uM) was 1.006. For the same compound, the “CMV-LACZ in Myoblasts (β-galactosidase activity relative to DMSO)” value ([3]; 0.5 uM) was 1.2808, the “CMV-LACZ in Myoblasts (β-galactosidase activity relative to DMSO)” value ([3]; 1 uM) was 0.9383 and the “CMV-LACZ in Myoblasts (β-galactosidase activity relative to DMSO)” value ([3]; 5 uM) was 0.8414. For the same compound, the “CMV-LACZ in Myoblasts (β-galactosidase activity relative to DMSO)” value ([3]; 10 uM) was 1.0482, the “CMV-LACZ in Myoblasts (β-galactosidase activity relative to DMSO)” value ([3]; 20 uM) was 0.9807 and the “CMV-LACZ in Myoblasts (β-galactosidase activity relative to DMSO)” value ([3]; 40 uM) was 1.1930. The “CMV-LACZ in Myotubes, signal relative to DMSO” value ([4]; 0.5 uM) was 0.9573, the “CMV-LACZ in Myotubes, signal relative to DMSO” value ([4]; 1 uM) was 0.8527 and the “CMV-LACZ in Myotubes, signal relative to DMSO” value ([4]; 5 uM) was 1.0338. For the same compound, the “CMV-LACZ in Myotubes, signal relative to DMSO” value ([4]; 10 uM) was 1.2388, the “CMV-LACZ in Myotubes, signal relative to DMSO” value ([4]; 20 uM) was 1.3660 and the “CMV-LACZ in Myotubes, signal relative to DMSO” value ([4]; 40 uM) was 1.1250.

With `O=C1Nc2ccccc2/C1=C/c1ccccc1Cl` [MLS001202425-01] the “Burkin Assay in Myoblasts, value relative to DMSO” value ([1]; 0.5 uM) was 1.2214, the “Burkin Assay in Myoblasts, value relative to DMSO” value ([1]; 1 uM) was 1.219 and the “Burkin Assay in Myoblasts, value relative to DMSO” value ([1]; 5 uM) was 0.9673. For the same compound, the “Burkin Assay in Myoblasts, value relative to DMSO” value ([1]; 10 uM) was 0.8645, the “Burkin Assay in Myoblasts, value relative to DMSO” value ([1]; 20 uM) was 0.7465 and the “Burkin Assay in Myoblasts, value relative to DMSO” value ([1]; 40 uM) was 0.3445. For the same compound, the “Burkin Assay in Myotubes, value relative to DMSO” value ([2]; 0.5 uM) was 1.148, the “Burkin Assay in Myotubes, value relative to DMSO” value ([2]; 1 uM) was 1.205 and the “Burkin Assay in Myotubes, value relative to DMSO” value ([2]; 5 uM) was 0.9499. For the same compound, the “Burkin Assay in Myotubes, value relative to DMSO” value ([2]; 10 uM) was 0.8033, the “Burkin Assay in Myotubes, value relative to DMSO” value ([2]; 20 uM) was 0.5178 and the “Burkin Assay in Myotubes, value relative to DMSO” value ([2]; 40 uM) was 0.354. The “CMV-LACZ in Myoblasts, value relative to DMSO” value ([3]; 0.5 uM) was 1.0625, the “CMV-LACZ in Myoblasts, value relative to DMSO” value ([3]; 1 uM) was 1.0919 and the “CMV-LACZ in Myoblasts, value relative to DMSO” value ([3]; 5 uM) was 0.8675. For the same compound, the “CMV-LACZ in Myoblasts, value relative to DMSO” value ([3]; 10 uM) was 1.1386, the “CMV-LACZ in Myoblasts, value relative to DMSO” value ([3]; 20 uM) was 0.9081 and the “CMV-LACZ in Myoblasts, value relative to DMSO” value ([3]; 40 uM) was 0.6233. The “CMV-LACZ in Myotubes, value relative to DMSO” value ([4]; 0.5 uM) was 0.8793, the “CMV-LACZ in Myotubes, value relative to DMSO” value ([4]; 1 uM) was 1.0185 and the “CMV-LACZ in Myotubes, value relative to DMSO” value ([4]; 5 uM) was 1.1496. For the same compound, the “CMV-LACZ in Myotubes, value relative to DMSO” value ([4]; 10 uM) was 1.0423, the “CMV-LACZ in Myotubes, value relative to DMSO” value ([4]; 20 uM) was 0.9918 and the “CMV-LACZ in Myotubes, value relative to DMSO” value ([4]; 40 uM) was 0.9976.
